Test results as given in patent US9644005B2, “Didemnin biosynthetic gene cluster in Tistrella mobilis” (King Abdullah University of Science and Technology, priority 2011, dated 2017).

Experiments:
[1] = system: HCT-116 human colon carcinoma cell; assay: Cytotoxic activity using HCT-116 human colon carcinoma cell; type: cell-based; conditions: compounds purified by semi-preparative HPLC; cell line not restated
[2] = phase II human clinical trials; cited from earlier work
murine leukemia cells = conditions: cited from earlier work
[3] = system: herpes simplex virus type 1; conditions: DNA and RNA viruses such as herpes simplex virus type 1; cited from earlier work

Row | Compound | concentration at which strong cytotoxic activity was shown [1] [ng/mL] | toxicity in human subjects [2] | activity against murine leukemia cells (murine leukemia cells) | antiviral activity [3]
1 | nordidemnin B | 0.074 | – | – | –
2 | CC[C@H](C)[C@H]1NC(=O)[C@@H](NC(=O)[C@@H](CC(C)C)N(C)C(=O)[C@@H]2CCCN2C(=O)C(C)O)[C@@H](C)OC(=O)[C@H](Cc2ccc(OC)cc2)N(C)C(=O)[C@@H]2CCCN2C(=O)[C@H](CC(C)C)NC(=O)[C@@H](C)C(=O)[C@H](C(C)C)OC(=O)C[C@@H]1O (some centres unmarked) [didemnin B] | 0.074 | high toxicity | strong activity | strong antiviral agent
